This note sets out measurements from US10854312B2, “Selective peptide antagonists” (BIONIZ, LLC, priority 2013, dated 2020).

Entries after “also recorded” stand apart in the source; their conditions may differ. No end group written: not given here.

Format in all cases: cell-based
For one experiment, the system named is human IL-7. The experiment in a line: Human peripheral T-cell (PBMC) proliferation assay, IL-7. The conditions noted are these: ex vivo human primary T cells, 10 nM human IL-7. As to the method: (§1) FIG. 6A-FIG. 6E presents inhibitory spectrum of BNZ132-1 over γc- and non-γc-cytokines. […] Neutralizing antibodies against each cytokine (R & D systems, 5 μg ml^−1) were included as controls. After 20 h, the cells were pulsed with WST-1 (Clontech) and OD450 of each well was measured after 6 h. A 19-mer scrambled peptide was used as a negative control at 5 μM. The experiments were conducted in triplicate (applies to all experiments in FIG. 6A-FIG. 6E). The result represents one of at least three independent experiments (applies to all experiments in FIG. 6A-FIG. 6E). […] In PT-18 proliferation assay, PT-18β or PT-18h21Rα cells were withdrawn of mouse IL-3 for 12 h before the experiment. Cells were then incubated with 1 nM of mouse IL-4, mouse IL-9, or mouse IL-21 in the presence or absence of the indicated doses (μM) of BNZ132-1. Neutralizing antibodies to each cytokine (5 μg ml^−1, except for anti-mouse IL-21 polyclonal antibody which was used at 15 μg ml−1) and a scrambled control peptide (5 μM) were included as negative controls. WST-1 assay was conducted as described above. […] In PT-18 h21Rα survival assay, PT-18h21Rα cells are described in the text. […] Both parental and hIL-21Rα positive PT-18 cells were washed and incubated without IL-3 for 12 h before the assay. […] The Y-axis represents the cpm (count per minute) values measured by a β-counter. […]

Experiment [1] relates to IL-15 signaling (STAT5, PI3kinase-Akt, MAP-kinase branches). The experiment in a line: Western blot of phosphorylation downstream of IL-15 in PT-18β cells. The note with it: 1 nM human IL-15, 0.5 μM BNZ132-1. As to the method: FIG. 9A-FIG. 9C present comprehensive inhibition by BN132-1 of signaling events caused by target γc-cytokines. […] Cells have been fasted of IL-3 for 12 h and then stimulated with 1 nM human IL-15 (Peprotech) in the presence or absence of 0.5 μM BNZ132-1 for 15 min before extraction of cellular proteins. Phosphorylation of the relevant molecules were detected using antibodies against each phosphor-proteins (Cell Signaling), followed by the ECL technique (Thermo Scientific). Lanes: 1. no stimulation, 2. IL-15 (1 nM), 3. IL-15 (1 nM)+BNZ132-1 (0.5 μM).
Cellular proliferation often represents a combination of several independent signaling pathways, and inhibiting one signaling branch […] the proliferation. […] FIG. 9A-FIG. 9C show comprehensive inhibition of the signal transduction pathways downstream of IL-15/IL-15 receptor system in PT-18 cells by BNZ 132-1. PT-18β cells have been withdrawn of IL-15 for overnight to induce into proliferative quiescence (no-stimulation). To restimulate the cells, 1 nM of IL-15 was added in the presence or absence of BNZ132-1 (0.5 μM). After […], cell lysates were collected and phosphorylation of key mediators of major signaling branches were determined by western blotting.
(In western blotting, separated proteins are transferred to a membrane and probed.)

For a further experiment, the system named is mouse IL-4. Put plainly: PT-18 proliferation assay (WST-1), IL-4. The conditions noted are these: murine PT-18 cells, mouse IL-4, BNZ132-1 50 nM, 500 nM, 5 μM. As to the method: as §1
The test system of another experiment is human IL-9. Put plainly: NK92 cell proliferation assay (WST-1), IL-9. The conditions noted are these: 24 h. As to the method: Human peripheral blood mononuclear cells were purified by the Ficoll-paque gradient centrifugation (GE-Healthcare) and stimulated by PHA (5 μg ml^−1, Sigma) for 48 h, then expanded with IL-2 (0.5 nM, Peprotech) for 48h, and then depleted of non-T cells by the Pan-T cell negative enrichment Ab cocktails (Miltenyi). The purified T cells were then fasted of IL-2 overnight prior to the proliferation assay by the tetrazolium dye method. Four hundred thousand cells (in 200 μl culture) were incubated with the cytokines and BNZ132-1 at the indicated concentrations for 24 h, and 20 μl WST1 reagent (Clontech) was added to each well. After 12 h incubation, OD450 was measured. The assay was performed in triplicate. […] NK 92 cells were cultured in human IL-2. Cells were washed to withdraw IL-2 for overnight and two hundred thousand cells (in 200 μl volume) were incubated with the indicated concentrations of the cytokine and BNZ132-1 for 24 h before 20 μl WST-1 reagent (Clontech) was added to each well to measure proliferative response. Absorbance at 450 nm was read at 6 h after the addition of the WST-1 dye. The assay was performed in triplicate. The assay was performed in triplicate and the figure represents a typical result out of 5 different HAM-TSP patients.

Take IKEFLQRFIHIVQSIINTS [BNZ132-1]: the “inhibition of IL-7-induced proliferation of ex vivo human T cells” value with human IL-7 is recorded as “not significantly inhibited; also recorded: no inhibition of IL-7”. Moreover, the “inhibition of IL-15 signaling (phosphorylation of key signaling molecules)” value in experiment [1] was “comprehensively inhibited; also recorded: near-complete inhibition”. Further, the “inhibition of IL-4-induced proliferation of PT-18 cells” value in the experiment with mouse IL-4 is recorded as “did not inhibit”. For the same sequence, in the experiment on human IL-9, the “inhibition of IL-9-induced proliferation of NK92 cells” value is listed as “dose-dependent inhibition”.
